Here are results for 2 compounds from paper PMC2892103 (Journal of molecular biology, 2010).

Structures are written as SMILES.

For the test, the target named is T1, E. coli TrmD (Escherichia coli, UniProt P0A873).
T1 sequence (P0A873 1-255): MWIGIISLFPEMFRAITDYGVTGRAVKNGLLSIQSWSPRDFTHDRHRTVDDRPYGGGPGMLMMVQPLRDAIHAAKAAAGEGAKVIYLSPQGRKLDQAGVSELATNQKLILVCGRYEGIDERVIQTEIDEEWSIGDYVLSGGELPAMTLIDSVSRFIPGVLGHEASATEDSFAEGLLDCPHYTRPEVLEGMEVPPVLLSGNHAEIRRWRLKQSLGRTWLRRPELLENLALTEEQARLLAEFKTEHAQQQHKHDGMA
The test is described as follows: intrinsic tryptophan fluorescence quenching, quadratic fit. The test is classed as binding.

`Nc1ncnc2c1ncn2[C@@H]1O[C@H](CSCC[C@H](N)C(=O)O)[C@@H](O)[C@H]1O` [AdoHcy] yielded a Kd of 330 ± 40 nM.
In the case of `C[S+](CC[C@H](N)C(=O)O)C[C@H]1O[C@@H](n2cnc3c(N)ncnc32)[C@H](O)[C@@H]1O` (some centres unmarked) [AdoMet] it was 1100 ± 200 nM.

By Kd is commonly meant a measure of binding affinity in units of concentration.
